Assay results reported in US20130224110A1, “USE OF ADENOSINE RECEPTOR SIGNALING TO MODULATE PERMEABILITY OF BLOOD-BRAIN BARRIER” (CORNELL UNIVERSITY, priority 2010, published 2013).

Tested on: EAE
Experiment: EAE induction and scoring (MOG35-55/CFA/PTX)
Format: in vivo, mice
Conditions: wild type mice, 2 mg/kg (1 mg/kg i.p. and 1 mg/kg s.c.) 1 day prior to EAE induction and daily for 30 days, vs DMSO alone
Excerpt: Cd73^−/− mice have been previously described (Thompson et al., “Crucial Role for Ecto-5′-Nucleotidase (CD73) in Vascular Leakage During Hypoxia,” J. Exp. Med. 200:1395-1405 (2004), which is hereby incorporated by reference in its entirety) and have been backcrossed to C57BL/6 for 14 generations. Cd73^−/− mice have no overt susceptibility to infection and appear normal based on the size and cellular composition of their lymphoid organs and their T and B cell responses in in vivo and in vitro assays (Thompson et al., “Crucial Role for Ecto-5′-Nucleotidase (CD73) in Vascular Leakage During Hypoxia,” J. Exp. Med. 200:1395-1405 (2004), which is hereby incorporated by reference in its entirety). C57BL/6 and tcrα^−/− mice on the C57BL/6 background were purchased from The Jackson Laboratories. Mice were bred and housed under specific pathogen-free conditions at Cornell University or the University of Turku. For adenosine receptor blockade experiments, mice were given drinking water supplemented with 0.6 g/L of caffeine (Sigma) or 2 mg/kg SCH58261 (1 mg/kg s.c. and 1 mg/kg i.p.) in DMSO (45% vol. in PBS) or 45% DMSO alone starting 1 day before EAE induction and continuing throughout the experiment. All procedures performed on mice were approved by the relevant animal review committee.
EAE was induced by subjecting mice to the myelin oligodendrocyte glycoprotein (“MOG”) EAE-inducing regimen as described in Swanborg, “Experimental Autoimmune Encephalomyelitis in Rodents as a Model for Human Demyelinating Disease,” Clin. Immunol. Immunopathol. 77:4-13 (1995) and Bynoe et al., “Epicutaneous Immunization with Autoantigenic Peptides Induces T Suppressor Cells that Prevent Experimental Allergic Encephalomyelitis,” Immunity 19:317-328 (2003), which are hereby incorporated by reference in their entirety. […] Mice were scored daily for EAE based on disease symptom severity; 0=no disease, 0.5-1=weak/limp tail, 2=limp tail and partial hind limb paralysis, 3=total hind limb paralysis, 4=both hind limb and fore limb paralysis, 5=death. […]
As CD73 catalyzes the breakdown of AMP to adenosine and ARs are expressed in the CNS (Tsutsui et al., “A1 Adenosine Receptor Upregulation and Activation Attenuates Neuroinflammation and Demyelination in a Model of Multiple Sclerosis,” J. Neurosci. 24:1521-1529 (2004)); Rosi et al., The Influence of Brain Inflammation Upon Neuronal Adenosine A2B Receptors,” J. Neurochem. 86:220-227 (2003), which are hereby incorporated by reference in their entirety), it was next determined if AR signaling is important during EAE progression. […] Since CD73 is highly expressed on the choroid plexus (FIG. 6C), it was next determined if ARs are also expressed on the choroid plexus. […]

Nc1nc2c(cnn2CCc2ccccc2)c2nc(-c3ccco3)nn12 [SCH58261, 2-(2-Furanyl)-7-(2-phenylethyl)-7H-pyrazolo[4,3-e][1,2,4]triazolo[1,5-c]pyrimidin-5-amine]
EAE development: dramatically protected against EAE development
